Test results from US20210177952A1, “METHOD AND COMPOSITION FOR STIMULATING IMMUNE RESPONSE” (BeyondSpring Pharmaceuticals, Inc., priority 2018, published 2021).

Test system: CD14^+ dendritic cells
Assay: FACS evaluation of dendritic cell maturation markers CD40, CD80, MHCII and CD86
Assay type: cell-based, Human
Description: ISOLATION OF CD14^+ MONOCYTES FROM PBMCs: On Day 1 of the study, PBMC cells were obtained from a human donor according to (1a)-(1d) above. Monocytes were then isolated from these PBMCs on the same day (Day 1) according to steps (2a)-(2k) as follows: (2a) The number of the PBMC cells was determined. (2b) The cell suspension was centrifuged at 300×g for 10 minutes; and the supernatant was aspirated completely. (2c) The cell pellet was re-suspended in 80 μL of FACS buffer per 10^7 total cells. (2d) Per 10^7 total cells, 20 μL of CD14 MicroBeads were added. (2e) Mix well and incubate for 15 minutes in the refrigerator (2 to 8° C.). (2f) The cells were washed by adding 1 to 2 mL of FACS buffer per 10^7 cells and centrifuged at ×1500 rpm for 10 min. (2g) The cells were re-suspended up to 10^8 cells in 500 μL of FACS buffer. (2h) The column was placed in magnetic field of a suitable MACS Separator. (2i) The column was prepared by rinsing with 3 mL of FACS buffer. (2j) The cell suspension was applied onto the column. Unlabeled cells that pass through were collected and the column was washed for three times each with 3 mL of FACS buffer. Total effluent, which was the unlabeled cell fraction, was collected. Washing steps were performed by adding FACS buffer three times. New buffer was added only when the column reservoir became empty. (2k) The column was then removed from the separator and placed on a suitable collection tube. 5 mL of FACS buffer was pipetted onto the column. The magnetically labeled cells were immediately flushed out by firmly pushing the plunger into the column. This fraction represented the CD14 positive monocytes.
DIFFERENTIATION OF MONOCYTES INTO CD14^+ DENDRITIC CELLS: From the CD14 positive monocytes obtained from (2k), dendritic cells (DCs) were differentiated according to steps (2l)-(2p) as follows: (21) 5×10^6 cells were re-suspended per 5 mL of ImmunoCult™ DC Differentiation Medium and mixed well. Then 5 mL of the cell suspension was added to a T-25 cm^2 flask and the cells were incubated for 3 days at 37° C. and 5% CO2. (2m) Meanwhile, in parallel, the monocytes were treated with 3, 1, 0.3, 0.1, 0.01 and 0 μM plinabulin, respectively, in the wells of a 6-well plate and incubated for 3 days. (2n) On Day 4, the medium was removed from the T-25 cm^2 flask by pipetting and added to a 14-mL centrifuge tube. 5 mL of fresh ImmunoCult™ DC Differentiation Medium was quickly added to the culture flask. (2o) The 14 mL tube containing medium and cells (from step (2n)) was centrifuged at 300×g for 10 min. The supernatant was removed and discarded. Cells were resuspended in a small volume (i.e. 50 μL or up to 10% of the original volume) of fresh ImmunoCult™ DC Differentiation Medium and returned to the culture flask in order to save non-adherent or loosely adherent cells. The cells were then incubated at 37° C. for 2 days. (2p) Also on Day 4, 90% differentiation medium for the DCs were removed from the 6-well plate, and 90% fresh differentiation medium were added. The cells were treated with 3, 1, 0.3, 0.1, 0.01 and 0 μM plinabulin as stated above in (2m) (Study Arm #1). After another 2 days incubation, the dendritic cell maturation was evaluated by FACS for CD40, CD80, MHCII and CD86. The rest cells continued without treatment to steps (4a)-(4d) below for MLR assay. […]

[1] = treated during differentiation or maturation

CC(C)(C)c1[nH]cnc1/C=c1\[nH]c(=O)/c(=C/c2ccccc2)[nH]c1=O [Plinabulin, (3Z,6Z)-3-Benzylidene-6-{[5-(2-methyl-2-propanyl)-1H-imidazol-4-yl]methylene}-2,5-piperazinedione]
CD86 expression on DCs (cells treated during DC maturation (Study Arm #A2)): increased CD86 expression on DCs
CD86 expression on DCs (cells treated during differentiation from CD14 cells (Study Arm #A1)): increased CD86 expression on DCs
CD40 expression on DCs [1]: no discernible increase
CD80 expression on DCs [1]: no discernible increase
MHCII expression on DCs [1]: no discernible increase
